Experimental data: BindingDB's records for doi:10.7270/Q2959G44 (Burnham Center For Chemical Genomics, 2012)

Target: Dual specificity protein phosphatase 3 (Homo sapiens, UniProt P51452)
Assay: VHR phosphatase inhibition, dose response, selectivity assay for STEP inhibitor project, biochemical (AID 602374)

Chain of Dual specificity protein phosphatase 3 (P51452 whole entry): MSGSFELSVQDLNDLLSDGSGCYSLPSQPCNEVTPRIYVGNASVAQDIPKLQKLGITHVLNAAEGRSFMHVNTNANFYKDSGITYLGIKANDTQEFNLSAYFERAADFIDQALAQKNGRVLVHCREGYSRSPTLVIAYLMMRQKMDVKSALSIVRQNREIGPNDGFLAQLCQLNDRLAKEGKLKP

Row | IC50 | SMILES
1 | 3130 nM | O=C(N/N=C/C1C=CC=CC1=O)c1cccc([N+](=O)[O-])c1 (stereo not given) [MLS002667988]
2 | 1270 nM | CSc1ccc(CN=Nc2ccc(S(=O)(=O)Nc3ccccc3C(=O)O)cc2[N+](=O)[O-])cc1 [MLS002245633]
3 | 1230 nM | S=C1N=C2C(=C3SCCS3)CCCC2C(c2ccccc2)N1 (stereo not given) [MLS000516376]
4 | 833 nM | COc1ccc(OC)c(-n2c(O)c3o[nH]c(-c4ccccc4Cl)c-3c2=O)c1 [SMR000046218]

Continued, compound first:

Row | SMILES | IC50
5 | O=C1C(=O)N(CCCO)C(c2ccc(Br)cc2)C1C(=O)c1ccc(Br)cc1 (stereo not given) [(4E)-5-(4-bromophenyl)-4-[(4-bromophenyl)-oxidanyl-methylidene]-1-(3-oxidanylpropyl)pyrrolidine-2,3-dione] | 73400 nM
6 | S=C1N=C(C23CC4CC(CC(C4)C2)C3)CC(c2ccc3c(c2)OCO3)N1 (stereo not given) | 3520 nM
7 | COc1ccc(CN=Nc2nc(O)c(CC(=O)O)s2)cc1OCc1ccc(Cl)cc1Cl [[2-({3-[(2,4-dichlorobenzyl)oxy]-4-methoxybenzylidene}hydrazono)-4-oxo-1,3-thiazolidin-5-yl]acetic acid] | 4790 nM
8 | CCN(CC)P(=O)(NC(=O)C(Cl)(Cl)Cl)N(CC)CC [MLS000564159] | 3250 nM
9 | C=c1c(O)c(O)c(=C2C(=O)C(=O)C(C)C(=O)C2=O)c(O)c1O (stereo not given) [(3E)-5-hydroxy-6-methyl-3-(2,3,5-trihydroxy-4-methyl-6-oxo-1-cyclohexa-2,4-dienylidene)cyclohex-5-ene-1,2,4-trione] | 1270 nM
10 | CCOc1cc(CN=Nc2nc(O)c(CC(=O)O)s2)ccc1OCc1ccc(Cl)cc1Cl [2-[2-[(N''E)-N''-[4-(2,4-dichlorobenzyl)oxy-3-ethoxy-benzylidene]hydrazino]-4-keto-2-thiazolin-5-yl]acetic acid] | 2420 nM
